Measurements taken from ChEMBL document CHEMBL4020739, “Investigation of the structural requirements of K-Ras(G12D) selective inhibitory peptide KRpep-2d using alanine scans and cysteine bridging” (Bioorg Med Chem Lett, 2017).
The source made the active and inactive calls. No cut-off for these calls is given here.

Key:
[1] = system: A549; assay: Antiproliferative activity against human A549 cells harboring K-Ras G12C mutant assessed as cell proliferation at 10 to 30 uM by CellTitre-Glo assay; format: functional, cell-based
[2] = system: A-427; assay: Antiproliferative activity against human A427 cells harboring K-Ras G12D mutant assessed as cell proliferation at 30 uM by CellTitre-Glo assay relative to control; format: functional; details: read-out: Activity
[3] = system: A-427; assay: Antiproliferative activity against human A427 cells harboring K-Ras G12D mutant assessed as cell proliferation at 10 uM by CellTitre-Glo assay relative to control; format: functional; details: read-out: Activity

SMILES: CC[C@H](C)[C@@H]1NC(=O)[C@H](Cc2ccc(O)cc2)NC(=O)[C@H](CC(C)C)NC(=O)[C@@H]2CCCN2C(=O)[C@@H](NC(=O)[C@H](CCCNC(=N)N)NC(=O)[C@H](CCCNC(=N)N)NC(=O)[C@H](CCCNC(=N)N)NC(=O)[C@H](CCCNC(=N)N)NC(C)=O)CSCSC[C@@H](C(=O)N[C@@H](CCCNC(=N)N)C(=O)N[C@@H](CCCNC(=N)N)C(=O)N[C@@H](CCCNC(=N)N)C(=O)N[C@@H](CCCNC(=N)N)C(N)=O)NC(=O)[C@H](C(C)C)NC(=O)[C@@H]2CCCN2C(=O)[C@H](CC(=O)O)NC(=O)[C@H](Cc2ccc(O)cc2)NC(=O)[C@H](CO)NC1=O
- Activity [1]: inactive
- growth at 30 µM [2]: 69.9%
- growth at 10 µM [3]: 91%
